Key:
Type in all cases: physicochemical
[1] = Particle size distribution by laser diffraction, Mastersizer 2000 with dry sampling (Scirocco); settings: individual particles, dry powder
Source text: However, it may be desirable for unstable (redispersible) agglomerates to be formed in the powder, and the size of the agglomerates may be as large as 10 µm or more. The size of particles in the powder, when considering the agglomerates, is to be taken as the size of the individual particles making up the agglomerate. The sizes of the individual particles and of the agglomerates may be determined using a suitable laser light diffraction techniques. For example, the higher compressed air values applied in the dispersion unit of the Mastersizer 2000® (Malvern, U.K.) (up to 4 bar), permit all the agglomerates to break down, especially for micron-sized powders, as is the case for DPI formulations. […] For each formulation, the particle size distribution is measured by laser diffractometry, using a dry sampling system with a suitable SOP (Standard Operating Procedure), (Scirocco®, Mastersizer 2000, Malvern, UK) and a Spraytec, (Malvern). […] The particle size distribution measured with the Mastersizer 2000, Scirocco (Malvern) gives an indication of the size distribution of the individual particles of the powder composition as the powder agglomerates are broken down during the measuring process. […]

[2] = Particle size distribution by laser diffraction, Spraytec with inhalation cell (simulated breathing); settings: agglomerates as at the exit of the DPI
Source text: However, it may be desirable for unstable (redispersible) agglomerates to be formed in the powder, and the size of the agglomerates may be as large as 10 µm or more. The size of particles in the powder, when considering the agglomerates, is to be taken as the size of the individual particles making up the agglomerate. The sizes of the individual particles and of the agglomerates may be determined using a suitable laser light diffraction techniques. For example, the higher compressed air values applied in the dispersion unit of the Mastersizer 2000® (Malvern, U.K.) (up to 4 bar), permit all the agglomerates to break down, especially for micron-sized powders, as is the case for DPI formulations. […] This allows the size properties of DPIs to be measured under simulated breathing conditions. For each formulation, the particle size distribution is measured by laser diffractometry, using a dry sampling system with a suitable SOP (Standard Operating Procedure), (Scirocco®, Mastersizer 2000, Malvern, UK) and a Spraytec, (Malvern). The particle size distribution measured with the Mastersizer 2000, Scirocco (Malvern) gives an indication of the size distribution of the individual particles of the powder composition as the powder agglomerates are broken down during the measuring process. […]

[3] = In vitro deposition / fine particle assessment with Multi-stage Liquid Impinger (MsLI), Aerolyzer device; set-up: Metered dose / Device / Throat / Stage 1 / Stage 2 / Stage 3 / Stage 4 / Filter: unit not given here; settings: loaded dose=15mg; for FPD: Fine Particle Dose, aerodynamic diameter inferior to 5 µm
Method: The Fine Particle Dose (FPD) has been determined by the method described in the European Pharmacopoeia 4 for the aerodynamic assessment of fine particle, using Apparatus C - Multi-stage Liquid Impinger (MsLI). A dry powder inhalation device (Aerolyzer®, Novartis, Switzerland) was filled with a No. 3 HPMC capsule (Capsugel, France) loaded with 15 mg powder. The flow rate was adjusted to a pressure drop of 4 kPa, as typical for inspiration by a patient, resulting in a flow rate of 100 l/min during 2.4 seconds. At least 3 Fine Particle Dose (FPD) determinations were performed on each formulation and analysis was carried out by a suitable and validated analytical HPLC method. In order to increase the UV absorptivity of the molecule, a derivatization method was applied. The suitable and validated quantification method is described in the USP 25. The HPLC system consisted of a High Performance Liquid Chromatography system (HP 1100 series, Agilent technologies, Belgium), equipped with a quartenary pump, an autosampler and a variable wavelength UV detector set at 365 nm. The separation system was a 30 cm x 3.9 mm stainless steel (5 µm particle size) reversed-phase C18 column (Alltima, Alltech, Belgium). Samples of 20 µl volume were injected. The mobile phase was prepared by dissolving 2 g of Tris(hydroxymethyl) aminomethane in 800 ml of water. After this, 20 ml of H2SO4 1 N was added and then the solution was diluted with acetonitrile to obtain 2 l, mixed and passed through a filter of 0.2 µm porosity. The flow rate was 1.2 ml/min. The mass of test substance retained at each stage was determined from the HPLC analysis of the recovered solutions. Starting at the filter, a cumulative mass deposition (undersize in percentage) vs. cut-off diameter of the respective stages was derived and the FPD was calculated by interpolating the mass of active ingredient less than 5 µm. […] It is considered to be directly proportional to the amount of drug able to reach the pulmonary tract in vivo, and consequently, the higher the value FPD, the higher the estimated lung deposition. […] Table 2: In vitro deposition study, with formulation given in example 1 vs. micronized tobramycin (raw material) (loaded dose=15mg, n=3).

In the case of `NC[C@H]1O[C@H](O[C@H]2[C@H](O)[C@@H](O[C@H]3O[C@H](CO)[C@@H](O)[C@H](N)[C@H]3O)[C@H](N)C[C@@H]2N)[C@H](N)C[C@@H]1O` [Micronized tobramycin, tobramycin], the “mass median diameter (d(0.5))” value [1] is reported as “about 1.3 µm”, the “particles having a diameter below 5.0 µm” value [2] is reported as 72% and the FPD ([3]; n=3) is reported as 5.5 ± 0.9 mg. For the same compound, the FPD ([3]; n=3, listed as micronized tobramycin) was “around 5.5 mg”, the Metered dose ([3]; n=3) was 12.9 ± 0.3 and the Filter ([3]; mass deposited, n=3) was 1.4 ± 0.3. For the same compound, the “Stage 1” value ([3]; mass deposited, n=3) was 0.9 ± 0.3, the “Stage 2” value ([3]; mass deposited, n=3) was 0.6 ± 0.4 and the “Stage 3” value ([3]; mass deposited, n=3) was 2.1 ± 0.9. The “Stage 4” value ([3]; mass deposited, n=3) was 1.7 ± 0.6, the Throat ([3]; mass deposited, n=3) was 0.3 ± 0.1 and the Device ([3]; mass deposited, n=3, 100 l/min during 2.4 seconds) was 6.0 ± 0.7.

From EP2050437A1, “Improved pharmaceutical dry powder compositions for inhalation” (Laboratoires SMB, priority 2007, dated 2009)
